# Test results as given in ChEMBL document CHEMBL1137590, “(3R)-4-[(3R)-3-Amino-4-(2,4,5-trifluorophenyl)butanoyl]-3-(2,2,2-trifluoroethyl)-1,4-diazepan-2-one, a selective dipeptidyl peptidase IV inhibitor for the treatment of type 2 diabetes” (Bioorg Med Chem Lett, 2007).
# Key:
# Dipeptidyl peptidase 2 = Dipeptidyl peptidase 2 (Homo sapiens, UniProt Q9UHL4); assay: In vitro inhibition of QPP dipeptidylpeptidase II
# [1] = Oral bioavailability in dogs; format: ADME, organism-based, Canis lupus familiaris; details: dog, in vivo
# [2] = Oral bioavailability in rats; format: ADME, organism-based; details: rat, in vivo
# Canis familiaris = organism: Canis familiaris; assay: Dose-normalized area under plasma concentration vs time curve in dogs; format: ADME, organism-based, Canis lupus familiaris; details: dog, in vivo
# Rattus norvegicus = organism: Rattus norvegicus; assay: Dose-normalized area under plasma concentration vs time curve in rats; format: ADME, organism-based; details: in vivo
# [3] = Plasma clearance in dogs; format: ADME, organism-based, Canis lupus familiaris; details: dog, read-out: Clp
# [4] = Plasma clearance in rats; format: ADME, organism-based; details: rat, read-out: Clp
# [5] = Half-life in dogs; format: ADME, organism-based, Canis lupus familiaris; details: dog, in vivo
# [6] = Half-life in rats; format: ADME, organism-based; details: rat, in vivo
Structure (SMILES),IC50 (Dipeptidyl peptidase 2),bioavailability [1],bioavailability [2],AUC (Canis familiaris),AUC (Rattus norvegicus),clearance [3],clearance [4],half-life [5],half-life [6]
N[C@@H](CC(=O)N1CCCNC(=O)C1)Cc1cc(F)c(F)cc1F,> 100 µM,–,–,–,–,–,–,–,–
C[C@@H]1C(=O)NCCCN1C(=O)C[C@H](N)Cc1cc(F)c(F)cc1F,–,100%,26%,8.5 uM h/(mg/kg),0.15 uM h/(mg/kg),9 mL/min/kg,88 mL/min/kg,4.3 h,1 h
N[C@@H](CC(=O)N1CCCNC(=O)[C@H]1CC(F)(F)F)Cc1cc(F)c(F)cc1F,–,95%,36%,2.2 uM h/(mg/kg),0.2 uM h/(mg/kg),18 mL/min/kg,94 mL/min/kg,9 h,2 h
